The source of these data is PMC12027554, “Inhibition of ABCG2 by SCO-101 Enhances Chemotherapy Efficacy in Cancer” (International Journal of Molecular Sciences, 2025).

The structures appear in SMILES notation. Where two headings read alike, the source gives them in different places.

For orientation: IC50 means the concentration that inhibits the measured activity by half.

This test has as its target T1, human UGT1A1 enzyme (Homo sapiens, UniProt P22309).
T1 sequence (P22309 26-533): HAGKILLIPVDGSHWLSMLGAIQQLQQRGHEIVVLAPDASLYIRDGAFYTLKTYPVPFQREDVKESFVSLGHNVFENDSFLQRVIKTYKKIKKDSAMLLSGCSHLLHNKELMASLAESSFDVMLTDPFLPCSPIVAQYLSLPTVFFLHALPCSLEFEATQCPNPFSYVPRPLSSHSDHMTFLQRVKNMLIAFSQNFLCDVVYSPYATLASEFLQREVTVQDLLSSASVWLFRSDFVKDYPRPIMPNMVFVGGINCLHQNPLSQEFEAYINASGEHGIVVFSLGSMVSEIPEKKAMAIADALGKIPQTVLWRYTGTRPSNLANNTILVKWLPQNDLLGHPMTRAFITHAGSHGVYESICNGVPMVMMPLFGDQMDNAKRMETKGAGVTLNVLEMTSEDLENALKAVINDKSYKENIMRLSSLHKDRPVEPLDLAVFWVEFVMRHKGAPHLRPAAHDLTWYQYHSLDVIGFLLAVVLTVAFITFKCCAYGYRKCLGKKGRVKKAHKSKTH
The test can be described thus: Inhibition of UGT1A1 glucuronidation activity (recombinant enzyme). The class given is biochemical. Conditions: SCO-101 0.003–1 µM. How it is done: The inhibition potency of SCO-101 towards the human UGT1A1 enzyme was studied using recombinant human enzymes and the two different probe substrates β-estradiol (10 μM) and SN-38 (10 μM). Additionally, a positive control inhibitor at a single concentration (10 μM ketoconazole) and a solvent control were employed. Reactions were conducted at 37 °C after a 10 min pre-incubation at 37 °C in incubation buffer (10 mM Tris-HCl, pH 7.4, 5 mM MgCl2, […] alamethicin) and started by adding 5 mM UDPGA. Reactions were terminated after 30 min by adding an equal volume of ice-cold acetonitrile with 1% formic acid and 0.5 μM caffeine. The level of the UGT-specific probe glucuronidation was monitored by LC/MS-MS, and inhibition was observed as a reduced level of metabolite formation of the substrate.

Take `O=C(Nc1cc(C(F)(F)F)cc(C(F)(F)F)c1)Nc1ccc(Br)cc1-c1nnn[nH]1` [SCO-101, N-[4-Bromo-2-(1H-1,2,3,4-tetrazol-5-yl)phenyl]-N′-[3,5-bis(trifluoromethyl)phenyl]urea]: the half-inhibitory concentration (IC50) is 100 nM (substrate SN-38 10 μM, read-out: IC50, UGT1A1 glucuronidation of SN-38) and 280 nM (substrate β-estradiol 10 μM, read-out: IC50, UGT1A1 glucuronidation of β-estradiol).
